In patent US20250041479A1, “PHOTO-ENZYMATIC PRINTING” (The Board of Trustees of the Leland Stanford Junior …, priority 2021, published 2025):

Legend:
Format in all cases: physicochemical
[1] = Razo cis-trans conversion using light (UV-Vis absorbance spectra)
Description: (§1) Razo as a stock solution of 70 mM in DMSO was diluted to 25 μM Razo in buffer (20 mM Tris-HCl, pH 7.4, 40 mM KCl). Absorbance spectra were acquired on a PerkinElmer UV-Vis spectrometer and sample illumination light was from a Lumencor Aura light engine, with a Blue light output centered on 475 nm with 28 nm bandpass filter and UV light output centered on 360 nm with a 28 nm bandpass filter. cis-Razo and trans-Razo Absorbance spectra shapes agreed with those from the paper where Razo was originally developed (Wang, et al. Angew. Chem., Int. Ed. 2010, 49, 5305). We aimed to characterize several features of the isomerization that are relevant to inform printing parameters for patterning of the substrate: light kinetics, dark kinetics, and durability.
After a long Blue (referred to as ‘visible’ in legend) light exposure to drive Razo to a trans dominated photostationary state, the amount of UV light necessary to drive Razo to the cis dominated photostationary state was determined to be roughly 10 seconds at 25% power (approximately 15 mW/cm^2).
After a long UV light exposure to drive Razo to a cis dominated photostationary state, the amount of Blue light necessary to drive Razo to the trans dominated photostationary state was determined to be roughly 10 seconds at 50% power (approximately 50 mW/cm^2).

[2] = Razo cis-trans thermal conversion in the dark; conditions: after long UV exposure, kept in the dark for 15 minutes
Description: as §1
After a long UV exposure to drive Razo to the cis dominated photostationary state, the sample was kept in the dark for 15 and 90 minutes.

[3] = Durability of the Razo cis-trans interconversion; conditions: blue then UV to photostationary states, repeated 15 times
Description: as §1
Blue light was applied until the trans-dominated photostationary state was reached (blue curve in FIG. 5). Then UV light was applied until the cis-dominated photostationary state was reached (purple curve in FIG. 5).

## C[N+]1(CCOc2ccc(/N=N/c3ccc(OCC[N+]4(C)CCCCC4)cc3)cc2)CCCCC1 [Razo]
[1]; 25 μM Razo in buffer (20 mM Tris-HCl, pH 7.4, 40 mM KCl), after long Blue exposure, UV 360 nm at 25% power (approximately 15 mW/cm^2)
  amount of UV light necessary to drive Razo to the cis dominated photostationary state: roughly 10 seconds
[1]; 25 μM Razo in buffer, after long UV exposure, Blue 475 nm at 50% power (approximately 50 mW/cm^2)
  amount of Blue light necessary to drive Razo to the trans dominated photostationary state: roughly 10 seconds
[2]
  relaxation of cis to trans in the dark: almost no relaxation of cis to trans
[3]
  isomerization efficiency over repeated blue/UV cycles: isomerization efficiency is maintained over 15 cycles
